Laboratory results taken from US12180187B2, “1-phenyl-5-azinylpyrazolyl-3-oxyalkyl acids and their use for controlling unwanted plant growth” (BAYER AKTIENGESELLSCHAFT, priority 2019, dated 2024).

How the values were obtained:
SETVI [1] = test: Pre-emergence action at 320 g/ha against SETVI; type: in vivo, Setaria viridis; details: visual scoring after about 3 weeks vs untreated controls
Procedure, shortened: (§1)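 Application: aqueous WP or EC with 0.5% additive on soil covering seeds, 600 l/ha. Read-out: visual percent damage after ~3 weeks in greenhouse, untreated pots as reference.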

AMARE [2] = test: Pre-emergence action at 320 g/ha against AMARE; type: in vivo, Amaranthus retroflexus; details: visual scoring after about 3 weeks vs untreated controls
Procedure, shortened: as §1

SETVI [3] = test: Pre-emergence action against SETVI, 1280 g/ha; type: in vivo, Setaria viridis; details: visual scoring after about 3 weeks vs untreated controls, 100% = plants have died, 0% = like control plants
Procedure, shortened: (§2)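 Sandy loam pots, seeds covered with soil; aqueous WP/EC spray on covering soil, 0.5% additive, 600 L/ha. Greenhouse growth, good conditions. Readout: visual % activity at ~3 weeks (0% = like control, 100% = dead).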

VERPE [4] = test: Pre-emergence action against VERPE, 1280 g/ha; type: in vivo, Veronica persica; details: scored visually after about 3 weeks vs untreated controls (100% = plants have died)
Procedure, shortened: as §2

POLCO = test: Pre-emergence action at 320 g/ha against POLCO; type: in vivo, Fallopia convolvulus (Polygonum convolvulus); details: visual scoring after about 3 weeks vs untreated controls
Procedure, shortened: as §1

AVEFA [5] = test: Pre-emergence action at 320 g/ha against AVEFA; type: in vivo; details: visual scoring after about 3 weeks vs untreated controls
Excerpt: b) Seeds of monocotyledonous and dicotyledonous weed plants and crop plants are placed in plastic or organic planting pots and covered with soil. The compounds of the invention, formulated in the form of wettable powders (WP) or as emulsion concentrates (EC), are then applied onto the surface of the covering soil as aqueous suspension or emulsion with addition of 0.5% additive at a water application rate of 600 l/ha (converted). After the treatment, the pots are placed in a greenhouse and kept under good growth conditions for the trial plants. After about 3 weeks, the effect of the preparations is scored visually in comparison with untreated controls as percentages. For example, 100% activity=the plants have died, 0% activity=like control plants. Tables 13 to 26 below show the effects of selected compounds of the general formula (I) on various harmful plants and at an application rate corresponding to 320 g/ha, which were obtained by the experimental procedure mentioned above.

POAAN [6] = test: Pre-emergence action against POAAN, 1280 g/ha; type: in vivo, Poa annua; details: visual scoring after about 3 weeks vs untreated controls, 100% = plants have died, 0% = like control plants
Procedure, shortened: as §2

ALOMY [7] = test: Pre-emergence action against ALOMY, 1280 g/ha; type: in vivo, Alopecurus myosuroides; details: visual scoring after about 3 weeks vs untreated controls, 100% = plants have died, 0% = like control plants
Procedure, shortened: as §2

AMARE [8] = test: Post-emergence action against AMARE, 1.28 kg/ha; type: in vivo, Amaranthus retroflexus; details: dosage 1280 g/ha, visual rating about 3 weeks after treatment vs untreated controls (100% = plants died)
Procedure, shortened: (§3)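 Spray at one-leaf stage with WP/EC + 0.5% additive, 600 L water/ha. Greenhouse, optimum conditions, ~3 wk. Visual % control vs untreated; 0 = no effect, 100 = dead.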

VIOTR = test: Pre-emergence action at 320 g/ha against VIOTR; type: in vivo, Viola tricolor; details: dosage 320 g/ha
Procedure, shortened: as §1

DIGSA [9] = test: Pre-emergence action at 320 g/ha against DIGSA; type: in vivo, Digitaria sanguinalis; details: visual scoring after about 3 weeks vs untreated controls
Procedure, shortened: as §1

POAAN [10] = test: Post-emergence action against POAAN, 1.28 kg/ha; type: in vivo, Poa annua; details: dosage 1280 g/ha, visual rating about 3 weeks after treatment vs untreated controls
Procedure, shortened: as §3

AVEFA [11] = test: Post-emergence action at 320 g/ha against AVEFA; type: in vivo; details: visual rating about 3 weeks after treatment vs untreated controls
Excerpt: Accordingly, the compounds of the invention have good herbicidal action against a broad spectrum of weed grasses and broad-leaved weeds and are therefore suitable for controlling unwanted vegetation by the post-emergence method. • b) Seeds of monocotyledonous and dicotyledonous weeds and crop plants are placed in sandy loam in plastic or organic planting pots, covered with soil and cultivated in a greenhouse under controlled growth conditions. 2 to 3 weeks after sowing, the test plants are treated at the one-leaf stage. The compounds of the invention, formulated in the form of wettable powders (WP) or as emulsion concentrates (EC), are then sprayed onto the green parts of the plants as aqueous suspension or emulsion with addition of 0.5% additive at a water application rate of 600 l/ha (converted). After the test plants have been kept in the greenhouse under optimum growth conditions for about 3 weeks, the activity of the preparations is rated visually in comparison to untreated controls. For example, 100% activity=the plants have died, 0% activity=like control plants. Tables 39 to 49 below show the effects of selected compounds of the general formula (I) according to Tables 1 and 2 on various harmful plants and at an application rate corresponding to 320 g/ha, which were obtained by the experimental procedure mentioned above.

ECHCG [12] = test: Pre-emergence action against ECHCG, 1280 g/ha; type: in vivo, Echinochloa crus-galli; details: visual scoring after about 3 weeks vs untreated controls, 100% = plants have died, 0% = like control plants
Procedure, shortened: as §2

ALOMY [13] = test: Pre-emergence action at 320 g/ha against ALOMY; type: in vivo, Alopecurus myosuroides; details: scored visually after about 3 weeks vs untreated controls (100% = plants have died)
Procedure, shortened: as §1

AMARE [14] = test: Pre-emergence action against AMARE, 1280 g/ha; type: in vivo, Amaranthus retroflexus; details: scored visually after about 3 weeks vs untreated controls (100% = plants have died)
Procedure, shortened: as §2

VERPE [15] = test: Pre-emergence action at 320 g/ha against VERPE; type: in vivo, Veronica persica; details: visual scoring after about 3 weeks vs untreated controls
Procedure, shortened: as §1

DIGSA [16] = test: Pre-emergence action against DIGSA, 1280 g/ha; type: in vivo, Digitaria sanguinalis; details: visual scoring after about 3 weeks vs untreated controls, 100% = plants have died, 0% = like control plants
Procedure, shortened: as §2

KCHSC [17] = test: Pre-emergence action against KCHSC, 1280 g/ha; type: in vivo, Bassia scoparia; details: scored visually after about 3 weeks vs untreated controls (100% = plants have died)
Procedure, shortened: as §2

MATIN [18] = test: Pre-emergence action at 320 g/ha against MATIN; type: in vivo, Tripleurospermum inodorum (Matricaria inodora); details: visual scoring after about 3 weeks vs untreated controls
Procedure, shortened: as §1

MATIN [19] = test: Pre-emergence action against MATIN, 1280 g/ha; type: in vivo, Tripleurospermum inodorum (Matricaria inodora); details: scored visually after about 3 weeks vs untreated controls (100% = plants have died)
Procedure, shortened: as §2

LOLRI [20] = test: Pre-emergence action at 320 g/ha against LOLRI; type: in vivo, Lolium rigidum; details: visual scoring after about 3 weeks vs untreated controls
Procedure, shortened: as §1

LOLRI [21] = test: Pre-emergence action against LOLRI, 1280 g/ha; type: in vivo, Lolium rigidum; details: visual scoring after about 3 weeks vs untreated controls, 100% = plants have died, 0% = like control plants
Procedure, shortened: as §2

MATIN [22] = test: Post-emergence action against MATIN, 1.28 kg/ha; type: in vivo, Tripleurospermum inodorum (Matricaria inodora); details: dosage 1280 g/ha, visual rating about 3 weeks after treatment vs untreated controls (100% = plants died)
Procedure, shortened: as §3

STEME [23] = test: Pre-emergence action against STEME, 1280 g/ha; type: in vivo, Stellaria media; details: scored visually after about 3 weeks vs untreated controls (100% = plants have died)
Procedure, shortened: as §2

VERPE [24] = test: Post-emergence action against VERPE, 1.28 kg/ha; type: in vivo, Veronica persica; details: dosage 1280 g/ha, visual rating about 3 weeks after treatment vs untreated controls (100% = plants died)
Procedure, shortened: as §3

ALOMY [25] = test: Post-emergence action against ALOMY, 1.28 kg/ha; type: in vivo, Alopecurus myosuroides; details: dosage 1280 g/ha, visual rating about 3 weeks after treatment vs untreated controls
Procedure, shortened: as §3

SETVI [26] = test: Post-emergence action against SETVI, 1.28 kg/ha; type: in vivo, Setaria viridis; details: dosage 1280 g/ha, visual rating about 3 weeks after treatment vs untreated controls
Procedure, shortened: as §3

STEME [27] = test: Post-emergence action against STEME, 1.28 kg/ha; type: in vivo, Stellaria media; details: dosage 1280 g/ha, visual rating about 3 weeks after treatment vs untreated controls (100% = plants died)
Procedure, shortened: as §3

KCHSC [28] = test: Post-emergence action against KCHSC, 1.28 kg/ha; type: in vivo, Bassia scoparia; details: dosage 1280 g/ha, visual rating about 3 weeks after treatment vs untreated controls (100% = plants died)
Procedure, shortened: as §3

ABUTH = test: Pre-emergence action against ABUTH, 1280 g/ha; type: in vivo, Abutilon theophrasti; details: scored visually after about 3 weeks vs untreated controls (100% = plants have died)
Excerpt: 1. Pre-Emergence Herbicidal Effect and Crop Plant Compatibility a) Seeds of mono- and dicotyledonous weed plants are placed in plastic pots in sandy loam soil (doubly sown with one species each of mono- or dicotyledonous weed plants per pot) and covered with soil. The compounds of the invention, formulated in the form of wettable powders (WP) or as emulsion concentrates (EC), are then applied onto the surface of the covering soil as aqueous suspension or emulsion with addition of 0.5% additive at a water application rate equivalent to 600 litres per hectare. After the treatment, the pots are placed in a greenhouse and kept under good growth conditions for the trial plants. After about 3 weeks, the effect of the preparations is scored visually in comparison with untreated controls as percentages. For example, 100% activity=the plants have died, 0% activity=like control plants. 1. Pre-Emergence Effectiveness Tables 1 to 12 below show the effects of selected compounds of the general formula (I) according to Tables 1 and 2 on various harmful plants and at an application rate corresponding to 1280 g/ha, which were obtained by the experimental procedure mentioned above.

DIGSA [29] = test: Post-emergence action against DIGSA, 1.28 kg/ha; type: in vivo, Digitaria sanguinalis; details: dosage 1280 g/ha, visual rating about 3 weeks after treatment vs untreated controls
Procedure, shortened: as §3

ECHCG [30] = test: Post-emergence action against ECHCG, 1.28 kg/ha; type: in vivo, Echinochloa crus-galli; details: dosage 1280 g/ha, visual rating about 3 weeks after treatment vs untreated controls
Procedure, shortened: as §3

LOLRI [31] = test: Post-emergence action against LOLRI, 1.28 kg/ha; type: in vivo, Lolium rigidum; details: dosage 1280 g/ha, visual rating about 3 weeks after treatment vs untreated controls
Procedure, shortened: as §3

| SMILES | Pre-emergence action against SETVI (SETVI [3]) [%] | Pre-emergence action against VERPE (VERPE [4]) [%] | Pre-emergence action against POAAN (POAAN [6]) [%] | Pre-emergence action against ALOMY (ALOMY [7]) [%] | Post-emergence action against AMARE (AMARE [8]) [%] | Post-emergence action against POAAN (POAAN [10]) [%] | Pre-emergence action against ECHCG (ECHCG [12]) [%] | Pre-emergence action against AMARE (AMARE [14]) [%] | Pre-emergence action against DIGSA (DIGSA [16]) [%] | Pre-emergence action against MATIN (MATIN [19]) [%] | Pre-emergence action against LOLRI (LOLRI [21]) [%] | Post-emergence action against MATIN (MATIN [22]) [%] | Pre-emergence action against STEME (STEME [23]) [%] | Post-emergence action against VERPE (VERPE [24]) [%] | Post-emergence action against ALOMY (ALOMY [25]) [%] | Pre-emergence action against ABUTH (ABUTH) [%] | Post-emergence action against DIGSA (DIGSA [29]) [%] | also measured |
| --- | --- | --- | --- | --- | --- | --- | --- | --- | --- | --- | --- | --- | --- | --- | --- | --- | --- | --- |
| C[C@@H](Oc1nn(-c2ccccc2F)c(-c2cncnc2)c1[N+](=O)[O-])C(=O)O [VI-016] | 100 | 100 | 100 | 90 | 100 | 100 | 100 | 100 | 100 | 100 | 100 | 90 | 100 | 90 |  |  |  | Pre-emergence action against SETVI in % (SETVI [1]): 100%; Pre-emergence action against AMARE in % (AMARE [2]): 100%; Pre-emergence action against POLCO in % (POLCO): 90%; Pre-emergence action against AVEFA in % (AVEFA [5]): 80%; Pre-emergence action against VIOTR in % (VIOTR): 100%; Pre-emergence action against DIGSA in % (DIGSA [9]): 100%; Post-emergence action against AVEFA in % (AVEFA [11]): 90%; Pre-emergence action at 320 g/ha against ALOMY in % (ALOMY [13]): 100%; Pre-emergence action against VERPE in % (VERPE [15]): 100%; Pre-emergence action against KCHSC (KCHSC [17]): 100%; Pre-emergence action against MATIN in % (MATIN [18]): 100%; Pre-emergence action against LOLRI in % (LOLRI [20]): 100% |
| CC(Oc1nn(-c2ccccc2F)c(-c2ccc(F)nc2)c1C(F)(F)F)C(=O)O (stereo not drawn) [VII-106] | 100 | 100 | 100 | 100 |  | 100 | 100 | 100 | 100 | 90 | 100 | 90 | 100 | 100 | 100 | 90 | 100 | Post-emergence action against SETVI (SETVI [26]): 90%; Post-emergence action against STEME (STEME [27]): 100%; Post-emergence action against KCHSC (KCHSC [28]): 100%; Post-emergence action against ECHCG (ECHCG [30]): 90% |
| COC(=O)[C@@H](C)Oc1nn(-c2ccccc2F)c(-c2cnc(F)c(F)c2)c1Br [VII-149] | 90 | 100 | 100 | 100 | 100 | 100 |  | 100 | 100 | 90 | 100 | 100 | 100 | 90 | 100 | 90 | 100 | Post-emergence action against LOLRI (LOLRI [31]): 100% |
